Test results published in patent US10562878B2, “Cycloalkylamines as monoamine reuptake inhibitors” (Sunovion Pharmaceuticals Inc., priority 2006, dated 2020).
Counter-ions that a name gives are not always drawn. Like-named read-outs stand apart in the source and are kept apart here.

How the values were obtained:
[1] = target: human serotonin transporter (Homo sapiens (Human), UniProt P31645); assay: Serotonin functional uptake assay, recombinant human transporter in HEK-293 cells; assay type: cell-based
Sequence of human serotonin transporter (P31645 whole entry): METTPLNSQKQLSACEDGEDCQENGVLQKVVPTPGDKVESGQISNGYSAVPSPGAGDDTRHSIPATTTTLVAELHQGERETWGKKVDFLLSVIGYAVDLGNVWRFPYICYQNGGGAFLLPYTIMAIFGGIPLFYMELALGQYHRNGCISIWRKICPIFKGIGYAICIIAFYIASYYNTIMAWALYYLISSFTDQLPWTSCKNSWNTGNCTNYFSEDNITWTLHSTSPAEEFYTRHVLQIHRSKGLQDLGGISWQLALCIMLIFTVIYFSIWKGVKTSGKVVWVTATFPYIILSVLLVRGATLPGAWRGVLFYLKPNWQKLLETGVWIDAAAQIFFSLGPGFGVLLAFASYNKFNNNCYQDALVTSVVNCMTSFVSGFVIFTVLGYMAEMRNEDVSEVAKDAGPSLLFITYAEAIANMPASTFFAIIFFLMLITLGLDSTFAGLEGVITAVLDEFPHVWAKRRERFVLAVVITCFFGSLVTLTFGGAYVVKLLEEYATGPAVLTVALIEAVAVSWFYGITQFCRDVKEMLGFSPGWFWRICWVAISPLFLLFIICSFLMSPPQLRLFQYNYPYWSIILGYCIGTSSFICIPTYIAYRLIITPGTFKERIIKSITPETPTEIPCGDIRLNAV

[2] = target: human dopamine transporter (Homo sapiens (Human), UniProt Q01959); assay: Dopamine functional uptake assay, recombinant human transporter in CHO-K1 or HEK293 cells; assay type: cell-based; details: read-out: hDAT IC50
Sequence of human dopamine transporter (Q01959 whole entry): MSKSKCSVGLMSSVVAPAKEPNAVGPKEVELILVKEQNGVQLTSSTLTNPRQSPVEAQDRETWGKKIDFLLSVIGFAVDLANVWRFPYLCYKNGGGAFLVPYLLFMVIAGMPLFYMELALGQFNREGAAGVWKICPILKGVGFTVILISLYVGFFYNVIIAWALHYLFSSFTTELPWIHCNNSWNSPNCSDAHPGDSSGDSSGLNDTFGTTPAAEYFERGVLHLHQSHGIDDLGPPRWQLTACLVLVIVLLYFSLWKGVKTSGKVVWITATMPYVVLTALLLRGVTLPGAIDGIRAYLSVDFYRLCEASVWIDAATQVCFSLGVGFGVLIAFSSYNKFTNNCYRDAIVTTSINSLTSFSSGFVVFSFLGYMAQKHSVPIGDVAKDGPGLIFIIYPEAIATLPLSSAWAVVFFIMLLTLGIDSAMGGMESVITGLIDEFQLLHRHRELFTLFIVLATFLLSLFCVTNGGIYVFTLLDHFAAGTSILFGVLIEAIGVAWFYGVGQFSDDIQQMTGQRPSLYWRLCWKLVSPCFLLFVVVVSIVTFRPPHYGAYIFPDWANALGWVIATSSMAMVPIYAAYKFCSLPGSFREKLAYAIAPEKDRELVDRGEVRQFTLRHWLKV

[3] = Human serotonin transporter uptake, read-out: hSERT IC50

CO[C@@H]1CCC[C@@](CN)(c2ccc(Cl)c(Cl)c2)C1 [Compound 192]
IC50 [1, 3]: > 10000 nM | IC50 [2]: 1960 nM

CNC[C@]1(c2ccc(Cl)c(Cl)c2)CC[C@H](O)CC1 [Compound 287, cis-4-(3,4-dichlorophenyl)-4-((methylamino)methyl)cyclohexanol]
IC50 [1, 3]: 1040 nM | IC50 [2]: 192 nM

C[C@@H]1CCCC[C@@]1(CN(C)C)c1ccc(Cl)c(Cl)c1 (racemic) [Compound 175, (±) cis-1-(1-(3,4-dichlorophenyl)-2-methylcyclohexyl)-N,N-dimethylmethanamine hydrochloride]
IC50 [1, 3]: 55 nM | IC50 [2]: 125 nM

CN(C)C[C@]1(c2ccc(Cl)c(Cl)c2)CCCC[C@H]1O (single isomer, unassigned) [153 E1, trans-2-(3,4-dichlorophenyl)-2-((dimethylamino)methyl)cyclohexanol]
IC50 [1, 3]: 17 nM | IC50 [2]: […]

CCNC[C@@]1(c2ccc(Cl)c(Cl)c2)CCCC[C@H]1C (racemic) [Compound 177, (±) cis-N-((1-(3,4-dichlorophenyl)-2-methylcyclohexyl)methyl)ethanamine]
IC50 [1, 3]: 3220 nM | IC50 [2]: 322 nM

CN(C)C[C@@]1(c2ccc(C(F)(F)F)cc2)CCCC[C@H]1O (single isomer, unassigned) [159 E2, cis-2-((dimethylamino)methyl)-2-(4-(trifluoromethyl)phenyl)cyclohexanol]
IC50 [1, 3]: 42 nM | IC50 [2]: 2310 nM

CN(C)C[C@@]1(c2ccc(Cl)c(F)c2)CCCC[C@H]1O (single isomer, unassigned) [157 E1, Cis-2-(4-chloro-3-fluorophenyl)-2-((dimethylamino)methyl)cyclohexanol]
IC50 [1, 3]: 1300 nM | IC50 [2]: 575 nM

CN(C)C[C@@]1(c2ccc(C(F)(F)F)cc2)CCCC[C@H]1O (single isomer, unassigned) [159 E1, cis-2-((dimethylamino)methyl)-2-(4-(trifluoromethyl)phenyl)cyclohexanol]
IC50 [1, 3]: 1260 nM | IC50 [2]: 3800 nM

CN(C)C[C@]1(c2ccc(Cl)cc2)CCCC[C@H]1O (single isomer, unassigned) [154 E1, trans-2-(4-chlorophenyl)-2-((dimethylamino)methyl)cyclohexanol]
IC50 [1, 3]: 2170 nM | IC50 [2]: 795 nM

CN(C)C[C@]1(c2ccc(Cl)c(F)c2)CCCC[C@H]1O (single isomer, unassigned) [158 E1, Trans-2-(4-chloro-3-fluorophenyl)-2-((dimethylamino)methyl)cyclohexanol]
IC50 [1, 3]: 8440 nM | IC50 [2]: 945 nM

CNC(=O)[C@@]1(c2ccc3ccccc3c2)CCCC[C@H]1O (relative stereo) [Compound 300, cis-2-hydroxy-N-methyl-1-(naphthalen-2-yl)cyclohexanecarboxamide]
IC50 [1, 3]: > 10000 nM | IC50 [2]: 1730 nM

CN(C)C[C@@]1(c2ccc(Cl)c(Cl)c2)CCCC[C@H]1O (single isomer, unassigned) [152 E2, cis-2-(3,4-dichlorophenyl)-2-((dimethylamino)methyl)cyclohexanol]
IC50 [1, 3]: 77 nM | IC50 [2]: […]

OC1CCCC1NCC1(c2ccc(Cl)c(Cl)c2)CCCCC1 (racemic) [Compound 116, (±) 2-((1-(3,4-dichlorophenyl)cyclohexyl)methylamino)cyclopentanol]
IC50 [1, 3]: 2060 nM | IC50 [2]: 3 nM

CN(C)C[C@]1(c2ccc(C(F)(F)F)cc2)CCCC[C@H]1O (single isomer, unassigned) [160 E1, trans-2-((dimethylamino)methyl)-2-(4-(trifluoromethyl)phenyl)cyclohexanol]
IC50 [1, 3]: 7190 nM | IC50 [2]: 9720 nM

CNC[C@]1(c2ccc(OC(F)(F)F)cc2)CCCC[C@H]1O (single isomer, unassigned) [146 E2, trans-2-((Methylamino)methyl)-2-(4-(trifluoromethoxy)phenyl) cyclohexanol]
IC50 [1, 3]: 2280 nM

CNC[C@@]1(c2ccc(OC(F)(F)F)cc2)CCCC[C@H]1O (single isomer, unassigned) [145 E1, cis-2-((Methylamino)methyl)-2-(4-(trifluoromethoxy)phenyl) cyclohexanol]
IC50 [1, 3]: 75 nM | IC50 [2]: 4730 nM

CN(C)C[C@@]1(c2ccc(Cl)c(Cl)c2)CCCC[C@H]1O (single isomer, unassigned) [152 E1, cis-2-(3,4-dichlorophenyl)-2-((dimethylamino)methyl)cyclohexanol]
IC50 [1, 3]: 405 nM | IC50 [2]: […]

CN(C)C[C@@]1(c2ccc(Cl)c(F)c2)CCCC[C@H]1O (single isomer, unassigned) [157 E2, Cis-2-(4-chloro-3-fluorophenyl)-2-((dimethylamino)methyl)cyclohexanol]
IC50 [1, 3]: 290 nM | IC50 [2]: 849 nM

CN(C)C[C@]1(c2ccc(Cl)cc2)CCCC[C@H]1O (single isomer, unassigned) [154 E2, trans-2-(4-chlorophenyl)-2-((dimethylamino)methyl)cyclohexanol]
IC50 [1, 3]: 439 nM | IC50 [2]: 888 nM

CNC[C@]1(c2ccc(C(F)(F)F)cc2)CCCC[C@H]1O (single isomer, unassigned) [144 E1, trans-2-((Methylamino)methyl)-2-(4-(trifluoromethyl)phenyl) cyclohexanol]
IC50 [1, 3]: 5630 nM

CN(C)C[C@]1(c2ccc(Cl)c(F)c2)CCCC[C@H]1O (single isomer, unassigned) [158 E2, Trans-2-(4-chloro-3-fluorophenyl)-2-((dimethylamino)methyl)cyclohexanol]
IC50 [1, 3]: 2990 nM | IC50 [2]: 5020 nM

CNC[C@]1(c2cccc(Cl)c2)CCCC[C@H]1O (single isomer, unassigned) [138 E2, trans-2-(3-chlorophenyl)-2-((methylamino)methyl)cyclohexanol]
IC50 [1, 3]: 7000 nM | IC50 [2]: 2540 nM

C[C@@H]1CCCC[C@@]1(CN)c1ccc(Cl)c(Cl)c1 (racemic) [Compound 174, (±)-cis-(1-(3,4-dichlorophenyl)-2-methylcyclohexyl)methanamine hydrochloride]
IC50 [1, 3]: 246 nM | IC50 [2]: 2780 nM

CNC[C@]1(c2ccc(OC)cc2)CCCC[C@H]1O (single isomer, unassigned) [140 E1, (±) trans-2-(4-Methoxyphenyl)-2-((methylamino)methyl)cyclohexanol]
IC50 [1, 3]: 2690 nM | IC50 [2]: 8820 nM

CNC[C@@]1(c2ccc(OC(F)(F)F)cc2)CCCC[C@H]1O (single isomer, unassigned) [145 E2, cis-2-((Methylamino)methyl)-2-(4-(trifluoromethoxy)phenyl) cyclohexanol]
IC50 [1, 3]: 220 nM | IC50 [2]: 6520 nM

CNC[C@]1(c2cccc(Cl)c2)CCCC[C@H]1O (single isomer, unassigned) [138 E1, trans-2-(3-chlorophenyl)-2-((methylamino)methyl)cyclohexanol]
IC50 ([1]; hSERT IC50): > 10000 nM | IC50 [2]: 918 nM

CCN(C)[C@H]1CC[C@@](CN)(c2ccc(Cl)c(Cl)c2)CC1 [Compound 290, trans-4-(aminomethyl)-4-(3,4-dichlorophenyl)-N-ethyl-N-methylcyclo-hexanamine]
IC50 [1, 3]: 992 nM | IC50 [2]: 1390 nM

CNC[C@@]1(c2ccc(C(F)(F)F)cc2)CCCC[C@H]1O (single isomer, unassigned) [143 E2, cis-2-((methylamino)methyl)-2-(4-(trifluoromethyl)phenyl)cyclohexanol]
IC50 [1, 3]: 7170 nM

NC[C@]1(c2ccc(Cl)c(Cl)c2)CC[C@H](O)CC1 [Compound 299, (1s,4s)-4-(aminomethyl)-4-(3,4-dichlorophenyl)cyclohexanol]
IC50 [1, 3]: 3870 nM
